Experimental data reported in US20090118258A1, “COMBINATION THERAPY COMPRISING ANGIOTENSIN CONVERTING ENZYME INHIBITORS AND VASOPRESSIN RECEPTOR ANTAGONISTS” (priority 2007, published 2009).

Key:
rat remnant kidney model [1] = experiment: Rat remnant kidney model of nephropathy (renal mass reduction, RMR); format: in vivo; details: for serum creatinine / urine protein: 1 and 2 months of treatment, Compound 1 10 and 30 mg/kg/d, FIG. 1; for serum creatinine / urine protein / percentage of sclerotic glomeruli: combination enalapril + Compound 1 30 mg/kg/d; for number of ED 1 positive cells per field (monocytes/macrophages in renal interstitium): termination, vehicle 63±4; for percentage of sclerotic glomeruli: renal histology at termination, Compound 1 10 or 30 mg/kg/d, enalapril, FIG. 2
From the text: The rat remnant kidney model is an animal model of severe progressive renal failure. In this model, a state of severe progressive renal failure is produced by renal mass reduction (RMR) through removal of one kidney and ligation of several branches of the renal artery, resulting in infarction and loss of function of two thirds of the remaining kidney. The procedure creates the conditions of severe hypertension, proteinuria, progressive renal function deterioration, tubulointerstitial damage and glomerulosclerosis (Olson J L, Hostetter T H, Rennke H G, Brenner B M, Venkatachalam M A: “Altered glomerular permselectivity and progressive sclerosis following extreme ablation of renal mass”. Kidney Int 22:112-126, 1982).
Nephropathy is evident as a progressively increasing amount of protein in urine, increases in serum creatinine and increases in arterial pressure. In addition, severe sclerosis of the glomeruli, inflammatory cell infiltration and tubular damage are measurable through histological analysis within 3 months of renal mass reduction (RMR). These measures form the basis for determining efficacy in the model. Urine protein, serum creatinine and arterial pressure are similarly measured in humans to determine impact of treatments on disease progression.
The aim of this study was to evaluate the effects of Compound 1 compared to an ACE inhibitor (enalapril), as well as the combination treatment with Compound 1 and enalapril, on proteinuria and renal disease progression in this model. The effectiveness of these agents has been associated with reductions in proteinuria, slowing of the rate of rise in serum creatinine and reduction in glomerular sclerosis and thus slowing of the progression to end stage renal failure.
(§1) Treatments were started 21 days after RMR, when animals already had overt nephropathy. Treatment groups (n=8/group, except enalapril n=7) included vehicle; Compound 1 at 10 mg/kg/d; Compound 1 at 30 mg/kg/d; enalapril at 15 mg/mL (in drinking water); and enalapril at 15 mg/mL+Compound 1 at 30 mg/kg/d. All compounds were administered in drinking water. An additional sham-operated untreated group was also included. Measurements were made at 21 d after RMR but before treatment, and at one and two months of treatment. […] Since the increased mortality was not dose dependent and was not apparent in the group receiving combination treatment with Compound 1 and enalapril (Table 1), the effect is likely due to chance and the known variability in the severity of renal failure in this model.

db/db mice = format: in vivo; details: for urinary albumin excretion (in words): 30 mg/kg/d in drinking water for 16 weeks; for mesangial surface area or percentage of glomerular area occupied by mesangium / urine osmolarity: 30 mg/kg/d; for mesangial surface area or percentage of glomerular area occupied by mesangium: compared to vehicle-treated animals; for urine osmolarity: throughout 16 weeks of dosing
Protocol: Male db/db mice, a genetic model of type 2 diabetes, develop early renal dysfunction manifested as increased urine albumin excretion. At 9 weeks of age diabetes was confirmed by measurement of blood glucose (>300 mg/dL) and animals assigned to one of three treatment groups (n=12/group): untreated, Compound 1, 30 mg/kg/d and enalapril, 30 mg/kg/d. Compounds were dosed in drinking water for 16 weeks. There was no mortality in any of the treatment groups. Body weights for animals were similar at the beginning of the study.

rat remnant kidney model [2] = experiment: Blood pressure in rat remnant kidney model; format: in vivo; details: Compound 1 10 and 30 mg/kg/d; enalapril; combination enalapril + Compound 1 30 mg/kg/d; FIG. 3
Protocol: as §1
Blood pressure reduction can contribute to slowing the progression of renal disease in this animal model as well as in humans.

rat remnant kidney model [3] = experiment: Serum and urine electrolytes in remnant kidney model; format: in vivo; details: for urinary Na excretion: both doses of Compound 1 (10, 30 mg/kg/d), reduced in vehicle treated RMR rats; for urinary Na excretion / urinary Cl excretion / urinary K excretion: enalapril alone, combination; for urinary Cl excretion / urinary K excretion: both doses of Compound 1, reduced in RMR rats vs control
Protocol: as §1
(§2) Water intake and diuresis was increased in all treatment groups following RMR (Table 2). […] There were no differences in serum electrolytes in any of the treatment groups at the termination of the experiment (Table 2).
Urinary Na excretion was reduced in the vehicle treated RMR rats. […] Urinary K and Cl excretion were reduced in rats with RMR compared to control rats.

[4] = tested on: streptozotocin-induced diabetic rat; experiment: Streptozotocin-induced diabetic rat model of nephropathy; format: in vivo; details: for serum albumin concentrations / kidney weight or renal glomerular or mesangial morphology: 30 mg/kg/d; for kidney weight or renal glomerular or mesangial morphology: compared to vehicle treated diabetic rats
Protocol: The streptozotocin-induced diabetic rat is a model of Type I diabetes that develops early renal dysfunction manifested as increased urine albumin excretion. One week after administration of streptozotocin, 65 mg/kg, i.p., rats were assigned to the following treatment groups: no treatment; Compound 1 at 30 mg/kg/d; or enalapril at 30 mg/kg/d. Both compounds were dosed in drinking water for 12 weeks. Mortality among the treatment groups at 12 weeks was 1/10 in the untreated and Compound 1-treated groups and 3/10 in the enalapril-treated group. As a result of the diabetic state, urine volumes were nearly 10 times that of non-diabetic rats. […] The fraction of filtered sodium and potassium excreted was unaffected by either Compound 1 and enalapril.

Type I diabetic rats = experiment: Arterial pressure and heart rate in Type I diabetic rats after seven days oral administration; format: in vivo, rat; details: oral administration for seven days
Protocol: Oral administration of Compound 1 for seven days in Type I diabetic rats had no effect on mean arterial pressure or heart rate over 48 h in diabetic rats. […] Oral administration of enalapril for seven days had no effect on arterial pressure over 48 h in diabetic rat

rat remnant kidney model [5] = experiment: Water intake and diuresis in remnant kidney model; format: in vivo; details: mean ± S.E.
Protocol: as §1, with “Treatment groups (n=8/group, except enalapril n=7) included vehicle; Compound 1 at 10 mg/kg/d; Compound 1 at 30 mg/kg/d; enalapril at 15 mg/mL (in drinking water); and enalapril at 15 mg/mL+Compound 1 at 30 mg/kg/d.” left out
as §2

[6] = 30 mg/kg/d in drinking water for 12 weeks
[7] = compared to vehicle treated controls
[8] = 1 month of treatment, Compound 1 10 mg/kg/d
[9] = 1 month of treatment, Compound 1 30 mg/kg/d
[10] = 2 month of treatment, Compound 1 10 mg/kg/d
[11] = 2 month of treatment, Compound 1 30 mg/kg/d
[12] = basal (before RMR and treatment), group Compound 1 10 mg/kg/d
[13] = basal (before RMR and treatment), group Compound 1 30 mg/kg/d
[14] = pre-treatment (21 d after RMR), group Compound 1 10 mg/kg/d
[15] = pre-treatment (21 d after RMR), group Compound 1 30 mg/kg/d
[16] = 1 month of treatment, Enalapril 15 mg/L
[17] = 2 month of treatment, Enalapril 15 mg/L
[18] = basal (before RMR and treatment), group Enalapril 15 mg/L
[19] = pre-treatment (21 d after RMR), group Enalapril 15 mg/L

## COc1cc(C(=O)N2CC[C@]3(C=C(C(=O)O)CC3)Cc3ccccc32)ccc1NC(=O)c1cc(F)ccc1Cl [Compound 1]
Rat remnant kidney model [1]; enalapril 15 mg/mL
  serum creatinine: reduced urine protein and serum creatinine when administered alone but not to the same extent as enalapril
  urine protein: reduced urine protein and serum creatinine when administered alone but not to the same extent as enalapril
Rat remnant kidney model [1]; Compound 1 10 mg/kg/d, not statistically significant
  number of ED 1 positive cells per field (monocytes/macrophages in renal interstitium): 48±4 positive cells per field
Rat remnant kidney model [1]; Compound 1 30 mg/kg/d, not statistically significant
  number of ED 1 positive cells per field (monocytes/macrophages in renal interstitium): 49±10 positive cells per field
Rat remnant kidney model [1]; Compound 1 10 and 30 mg/kg/d alone, combination Compound 1 30 mg/kg/d + enalapril, not dose dependent, judged due to chance
  mortality (in words): apparent excess mortality
Rat remnant kidney model [1]; rat, in vivo, 10 mg/kg/day, 1 month
  Mortality rate: 2/8
Rat remnant kidney model [1]; rat, in vivo, 10 mg/kg/day, 2 months
  Mortality rate: 4/8
Rat remnant kidney model [1]; rat, in vivo, 30 mg/kg/day, 1 month
  Mortality rate: 2/8
Rat remnant kidney model [1]; rat, in vivo, 30 mg/kg/day, 2 months
  Mortality rate: 3/8
Rat remnant kidney model [1]
  percentage of sclerotic glomeruli: tended to decrease the percentage of sclerotic glomeruli compared with vehicle, but this was not statistically significant
db/db mice; FIG. 5
  urinary albumin excretion (in words): unaffected
db/db mice
  mesangial surface area or percentage of glomerular area occupied by mesangium: No significant differences
  urine osmolarity: unaffected by treatment
Rat remnant kidney model [2]
  arterial pressure: significant reductions in arterial pressure compared to vehicle
Rat remnant kidney model [3]
  urinary Na excretion: tended to normalize urinary Na excretion to similar extents
  urinary Cl excretion: tended to normalize urinary K and Cl excretion
  urinary K excretion: tended to normalize urinary K and Cl excretion
[4]; [6]
  fraction of filtered sodium and potassium excreted: unaffected
  urine endpoints: daily volume output, osmolarity, chloride, creatinine, sodium or potassium concentrations, clearances or excretion values: not significantly altered
[4]; 30 mg/kg/d in drinking water, compared to vehicle treated controls, FIG. 4
  urine albumin excretion: significant decrease
[4]; [7]
  serum albumin concentrations: not statistically significant, serum albumin concentrations increased
[4]
  kidney weight or renal glomerular or mesangial morphology: no significant effects
[4]; Compound 1 30 mg/kg/d
  urine free water clearance: trend toward increased urine free water clearance
[4]; Compound 1 30 mg/kg/d, compared to vehicle treated controls
  serum osmolarity: decreased significantly
Type I diabetic rats
  (mean) arterial pressure over 48 h: no effect
  heart rate over 48 h: no effect
Rat remnant kidney model [5]; [8]
  diuresis: 47 ± 2 mL/24 h
  water intake: 53 ± 9° mL/24 h
Rat remnant kidney model [5]; [9]
  diuresis: 41 ± 4 mL/24 h
  water intake: 60 ± 7 mL/24 h
Rat remnant kidney model [5]; [10]
  diuresis: 43 ± 5 mL/24 h
  water intake: 62 ± 6 mL/24 h
Rat remnant kidney model [5]; [11]
  diuresis: 49 ± 8 mL/24 h
  water intake: 60 ± 16 mL/24 h
Rat remnant kidney model [5]; [12]
  diuresis: 19 ± 1 mL/24 h
  water intake: 43 ± 5 mL/24 h
Rat remnant kidney model [5]; [13]
  diuresis: 19 ± 1 mL/24 h
  water intake: 47 ± 3 mL/24 h
Rat remnant kidney model [5]; [14]
  diuresis: 44 ± 3 mL/24 h
  water intake: 66 ± 5 mL/24 h
Rat remnant kidney model [5]; [15]
  diuresis: 55 ± 4 mL/24 h
  water intake: 76 ± 6 mL/24 h

## CCOC(=O)[C@H](CCc1ccccc1)N[C@@H](C)C(=O)N1CCC[C@H]1C(=O)O [Enalapril, enalapril, reference compound]
Rat remnant kidney model [1]; enalapril 15 mg/mL
  serum creatinine: significantly reduced
  urine protein: significantly reduced
Rat remnant kidney model [1]; 1 month of treatment, enalapril in drinking water, dead/total
  Mortality rate: 0/7
Rat remnant kidney model [1]; 2 month of treatment, enalapril in drinking water, dead/total
  Mortality rate: 1/7
Rat remnant kidney model [1]; enalapril 15 mg/mL, statistically significant reduction
  number of ED 1 positive cells per field (monocytes/macrophages in renal interstitium): 38±6 positive cells per field
Rat remnant kidney model [1]
  percentage of sclerotic glomeruli: significant reduction
db/db mice; FIG. 5
  urinary albumin excretion (in words): tended to reduce urine albumin excretion with significant differences observed at 2 weeks and 16 weeks compared to vehicle controls
db/db mice
  mesangial surface area or percentage of glomerular area occupied by mesangium: No significant differences
  urine osmolarity: unaffected by treatment
db/db mice; enalapril 30 mg/kg/d in drinking water, over 16 weeks, FIG. 5
  albumin excretion in urine: ≤ 500 ug/24 h
Rat remnant kidney model [2]
  arterial pressure: significant reductions in arterial pressure compared to vehicle
Rat remnant kidney model [3]
  urinary Na excretion: tended to normalize urinary Na excretion to similar extents
  urinary Cl excretion: tended to normalize urinary K and Cl excretion
  urinary K excretion: tended to normalize urinary K and Cl excretion
Rat remnant kidney model [3]; compared to vehicle group
  urine chloride ion (Cl−): significantly greater than those in the vehicle group
[4]; [6]
  fraction of filtered sodium and potassium excreted: unaffected
  urine endpoints: daily volume output, osmolarity, chloride, creatinine, sodium or potassium concentrations, clearances or excretion values: not significantly altered
[4]; 30 mg/kg/d in drinking water for 12 weeks, dead/total, untreated 1/10
  Mortality at 12 weeks: 3/10
[4]; [7]
  serum albumin concentrations: not statistically significant, serum albumin concentrations increased
[4]
  kidney weight or renal glomerular or mesangial morphology: no significant effects
Type I diabetic rats
  (mean) arterial pressure over 48 h: no effect
Rat remnant kidney model [5]; [16]
  diuresis: 46 ± 4 mL/24 h
  water intake: 60 ± 4*° mL/24 h
Rat remnant kidney model [5]; [17]
  diuresis: 45 ± 3 mL/24 h
  water intake: 59 ± 6 mL/24 h
Rat remnant kidney model [5]; [18]
  diuresis: 19 ± 1 mL/24 h
  water intake: 44 ± 4 mL/24 h
Rat remnant kidney model [5]; [19]
  diuresis: 46 ± 5 mL/24 h
  water intake: 66 ± 6 mL/24 h
